Results: patent US9937151B2, “Carbapenem antibacterials with gram-negative activity” (priority 2010, dated 2018)
≈ marks a conversion by molar mass, not a printed value.

Tested on: G(−) bacterial strains
Assay: Dilution antimicrobial susceptibility tests (MIC, NCCLS agar dilution / broth dilution)
Assay type: cell-based, Gram-negative organisms
Conditions: unit assumed
Outline: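 Agar dilution on Mueller-Hinton agar at 10^4 CFU/spot and broth dilution at 5×10^5 CFU/well, per NCCLS M7-A5. Streptococci tested on Mueller-Hinton agar with 5% sheep blood. MIC taken as minimum inhibitory concentration; ATCC control strains run alongside.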

[1] = strain #1 Acinetobacter calcoaceticus
[2] = strain #2 Acinetobacter baumannii, Cf-R, Ci-R
[3] = strain #3 Acinetobacter baumannii, Cf-R, Ci-R, Mp-I
[4] = strain #4 Acinetobacter baumannii, Cf-R, Imp-I, CBPase
[5] = strain #7 Enterobacter aerogenes
[6] = strain #8 Enterobacter cloacae, Cf-R, B+
[7] = strain #9 Enterobacter cloacae, Cf-R
[8] = strain #10 Escherichia coli, Ci-R
[9] = strain #11 Escherichia coli, Ci-R, AmpC
[10] = strain #15 Klebsiella pneumoniae
[11] = strain #16 Moraxella catarrhalis
[12] = strain #21 Providencia rettgeri
[13] = strain #22 Salmonella typhimurium
[14] = strain #25 Shigella dysenteriae
[15] = strain #28 Stenotrophomonas maltophilia
[16] = strain #29 Pseudomonas aeruginosa
[17] = strain #30 Pseudomonas aeruginosa
[18] = strain #31 Pseudomonas aeruginosa, Ofx-R
[19] = strain #32 Pseudomonas aeruginosa, Cf-R
[20] = strain #33 Pseudomonas aeruginosa, Ci-R
[21] = strain #34 Pseudomonas aeruginosa, Gen-R
[22] = strain #35 Pseudomonas aeruginosa, Ip-R
[23] = strain #36 Pseudomonas aeruginosa, Cf-R, Ci-R, Mp-R

Structure (SMILES): C[C@@H](O)C1C(=O)N2C(C(=O)O)=C(CN3CC[C@H](NC(N)=O)C3)[C@H](C)C12 (stereo partly drawn) [Compound 78]
- MIC [1]: 2 µg/mL (≈ 5.68 µM)
- MIC [2]: 2 µg/mL (≈ 5.68 µM)
- MIC [3]: 4 µg/mL (≈ 11.4 µM)
- MIC [4]: 4 µg/mL (≈ 11.4 µM)
- MIC (strain #5 Citrobacter diversus): 0.5 µg/mL (≈ 1.42 µM)
- MIC (strain #6 Citrobacter freundii): 0.5 µg/mL (≈ 1.42 µM)
- MIC [5]: 2 µg/mL (≈ 5.68 µM)
- MIC [6]: 0.5 µg/mL (≈ 1.42 µM)
- MIC [7]: 1 µg/mL (≈ 2.84 µM)
- MIC [8]: 0.5 µg/mL (≈ 1.42 µM)
- MIC [9]: 0.5 µg/mL (≈ 1.42 µM)
- MIC (strain #12 Escherichia coli): 0.5 µg/mL (≈ 1.42 µM)
- MIC (strain #13 Escherichia coli): 1 µg/mL (≈ 2.84 µM)
- MIC (strain #14 Klebsiella oxytoca): 1 µg/mL (≈ 2.84 µM)
- MIC [10]: 1 µg/mL (≈ 2.84 µM)
- MIC [11]: 0.016 µg/mL (≈ 0.0454 µM)
- MIC (strain #17 Morganella Morganii): 8 µg/mL (≈ 22.7 µM)
- MIC (strain #18 Morganella Morganii): 4 µg/mL (≈ 11.4 µM)
- MIC (strain #19 Proteus vulgaris): 4 µg/mL (≈ 11.4 µM)
- MIC (strain #20 Proteus mirabilis): 1 µg/mL (≈ 2.84 µM)
- MIC [12]: 4 µg/mL (≈ 11.4 µM)
- MIC [13]: 1 µg/mL (≈ 2.84 µM)
- MIC (strain #23 Serratia marcescens): 2 µg/mL (≈ 5.68 µM)
- MIC (strain #24 Serratia marcescens): 2 µg/mL (≈ 5.68 µM)
- MIC [14]: 1 µg/mL (≈ 2.84 µM)
- MIC (strain #26 Shigella sonnei): 1 µg/mL (≈ 2.84 µM)
- MIC (strain #27 Shigella flexneri): 0.5 µg/mL (≈ 1.42 µM)
- MIC [15]: 1 µg/mL (≈ 2.84 µM)
- MIC [16]: 8 µg/mL (≈ 22.7 µM)
- MIC [17]: 8 µg/mL (≈ 22.7 µM)
- MIC [18]: 2 µg/mL (≈ 5.68 µM)
- MIC [19]: 16 µg/mL (≈ 45.4 µM)
- MIC [20]: 16 µg/mL (≈ 45.4 µM)
- MIC [21]: 16 µg/mL (≈ 45.4 µM)
- MIC [22]: 16 µg/mL (≈ 45.4 µM)
- MIC [23]: > 32 µg/mL

Structure (SMILES): C[C@@H](O)C1C(=O)N2C(C(=O)O)=C(CN3CC[C@H](NCC(N)=O)C3)[C@H](C)C12 (stereo partly drawn) [Compound 83]
- MIC [1]: 2 µg/mL (≈ 5.46 µM)
- MIC [2]: 4 µg/mL (≈ 10.9 µM)
- MIC [3]: 8 µg/mL (≈ 21.8 µM)
- MIC [4]: 8 µg/mL (≈ 21.8 µM)
- MIC (strain #5 Citrobacter diversus): 0.5 µg/mL (≈ 1.36 µM)
- MIC (strain #6 Citrobacter freundii): 1 µg/mL (≈ 2.73 µM)
- MIC [5]: 4 µg/mL (≈ 10.9 µM)
- MIC [6]: 0.5 µg/mL (≈ 1.36 µM)
- MIC [7]: 1 µg/mL (≈ 2.73 µM)
- MIC [8]: 0.5 µg/mL (≈ 1.36 µM)
- MIC [9]: 0.5 µg/mL (≈ 1.36 µM)
- MIC (strain #12 Escherichia coli): 0.5 µg/mL (≈ 1.36 µM)
- MIC (strain #13 Escherichia coli): 1 µg/mL (≈ 2.73 µM)
- MIC (strain #14 Klebsiella oxytoca): 2 µg/mL (≈ 5.46 µM)
- MIC [10]: 1 µg/mL (≈ 2.73 µM)
- MIC [11]: 0.031 µg/mL (≈ 0.0846 µM)
- MIC (strain #17 Morganella Morganii): 8 µg/mL (≈ 21.8 µM)
- MIC (strain #18 Morganella Morganii): 8 µg/mL (≈ 21.8 µM)
- MIC (strain #19 Proteus vulgaris): 4 µg/mL (≈ 10.9 µM)
- MIC (strain #20 Proteus mirabilis): 1 µg/mL (≈ 2.73 µM)
- MIC [12]: 4 µg/mL (≈ 10.9 µM)
- MIC [13]: 1 µg/mL (≈ 2.73 µM)
- MIC (strain #23 Serratia marcescens): 2 µg/mL (≈ 5.46 µM)
- MIC (strain #24 Serratia marcescens): 2 µg/mL (≈ 5.46 µM)
- MIC [14]: 1 µg/mL (≈ 2.73 µM)
- MIC (strain #26 Shigella sonnei): 1 µg/mL (≈ 2.73 µM)
- MIC (strain #27 Shigella flexneri): 0.5 µg/mL (≈ 1.36 µM)
- MIC [15]: 1 µg/mL (≈ 2.73 µM)
- MIC [16]: 16 µg/mL (≈ 43.7 µM)
- MIC [17]: 16 µg/mL (≈ 43.7 µM)
- MIC [18]: 8 µg/mL (≈ 21.8 µM)
- MIC [19]: 16 µg/mL (≈ 43.7 µM)
- MIC [20]: 16 µg/mL (≈ 43.7 µM)
- MIC [21]: 32 µg/mL (≈ 87.3 µM)
- MIC [22]: 32 µg/mL (≈ 87.3 µM)
- MIC [23]: > 32 µg/mL

Structure (SMILES): C[C@@H](O)C1C(=O)N2C(C(=O)O)=C(CN3CC[C@H](NC=N)C3)[C@H](C)C12 (stereo partly drawn) [Compound 84]
- MIC [1]: 0.25 µg/mL (≈ 0.743 µM)
- MIC [2]: 0.5 µg/mL (≈ 1.49 µM)
- MIC [3]: 1 µg/mL (≈ 2.97 µM)
- MIC [4]: 1 µg/mL (≈ 2.97 µM)
- MIC (strain #5 Citrobacter diversus): 0.25 µg/mL (≈ 0.743 µM)
- MIC (strain #6 Citrobacter freundii): 0.5 µg/mL (≈ 1.49 µM)
- MIC [5]: 1 µg/mL (≈ 2.97 µM)
- MIC [6]: 0.25 µg/mL (≈ 0.743 µM)
- MIC [7]: 0.5 µg/mL (≈ 1.49 µM)
- MIC [8]: 0.25 µg/mL (≈ 0.743 µM)
- MIC [9]: 0.25 µg/mL (≈ 0.743 µM)
- MIC (strain #12 Escherichia coli): 0.25 µg/mL (≈ 0.743 µM)
- MIC (strain #13 Escherichia coli): 0.5 µg/mL (≈ 1.49 µM)
- MIC (strain #14 Klebsiella oxytoca): 0.5 µg/mL (≈ 1.49 µM)
- MIC [10]: 0.5 µg/mL (≈ 1.49 µM)
- MIC [11]: ≤ 0.008 µg/mL
- MIC (strain #17 Morganella Morganii): 4 µg/mL (≈ 11.9 µM)
- MIC (strain #18 Morganella Morganii): 2 µg/mL (≈ 5.95 µM)
- MIC (strain #19 Proteus vulgaris): 1 µg/mL (≈ 2.97 µM)
- MIC (strain #20 Proteus mirabilis): 0.5 µg/mL (≈ 1.49 µM)
- MIC [12]: 2 µg/mL (≈ 5.95 µM)
- MIC [13]: 0.5 µg/mL (≈ 1.49 µM)
- MIC (strain #23 Serratia marcescens): 1 µg/mL (≈ 2.97 µM)
- MIC (strain #24 Serratia marcescens): 1 µg/mL (≈ 2.97 µM)
- MIC [14]: 0.5 µg/mL (≈ 1.49 µM)
- MIC (strain #26 Shigella sonnei): 0.5 µg/mL (≈ 1.49 µM)
- MIC (strain #27 Shigella flexneri): 0.25 µg/mL (≈ 0.743 µM)
- MIC [15]: 0.25 µg/mL (≈ 0.743 µM)
- MIC [16]: 2 µg/mL (≈ 5.95 µM)
- MIC [17]: 2 µg/mL (≈ 5.95 µM)
- MIC [18]: 0.5 µg/mL (≈ 1.49 µM)
- MIC [19]: 2 µg/mL (≈ 5.95 µM)
- MIC [20]: 2 µg/mL (≈ 5.95 µM)
- MIC [21]: 2 µg/mL (≈ 5.95 µM)
- MIC [22]: 4 µg/mL (≈ 11.9 µM)
- MIC [23]: 16 µg/mL (≈ 47.6 µM)
